Experimental data as given in patent publication US11564923B2, “Compounds and pharmaceutical compositions thereof for the treatment of inflammatory disorders” (Galapagos NV, priority 2017, dated 2023).

Tests used:
[1] = system: IFNα activation of STAT1 in PBMC; test: IFNα activation of STAT1 in PBMC; type: cell-based; conditions: Homo sapiens; IFNα activation of STAT1 in PBMC; average IC50; read-out: IFNα signaling inhibitory potency IC50
In short: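 Human PBMC, with red cells lysed by NH4Cl, were pre-treated with compound for 30 min at 37 °C and 5% CO2. They were then stimulated for 30 min with recombinant human IFNα at 5 ng/mL final.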

[2] = molecular target: T1, Recombinant human TYK2 catalytic domain (amino acids 871-1187) (Homo sapiens, UniProt P29597); test: TYK2 ADPglo kinase assay; type: biochemical; further: 12 µM ATP
T1 construct: catalytic domain (amino acids 871-1187)
T1 sequence (P29597 871-1187): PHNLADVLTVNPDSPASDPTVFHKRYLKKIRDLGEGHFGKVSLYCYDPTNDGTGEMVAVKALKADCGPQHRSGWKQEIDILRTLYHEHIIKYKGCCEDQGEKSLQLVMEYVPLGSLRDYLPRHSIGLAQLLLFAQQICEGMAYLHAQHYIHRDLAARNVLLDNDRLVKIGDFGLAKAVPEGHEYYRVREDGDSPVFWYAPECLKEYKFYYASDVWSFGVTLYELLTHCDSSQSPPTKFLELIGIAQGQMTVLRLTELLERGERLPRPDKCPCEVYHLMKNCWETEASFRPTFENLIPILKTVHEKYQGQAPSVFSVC
Method: After 120 min at room temperature, reactions were stopped and the remaining ATP is depleted by adding 5 μL/well of ADP Glo Reagent (Promega, catalog number V912B). After 40 min at room temperature, 10 μl Kinase Detection Reagent (Kinase Detection Substrate (Promega, catalog number V914B) dissolved in Kinase Detection Buffer (Promega, catalog number V913B)) is added to convert ADP to ATP and to measure this newly synthesized ATP in a luciferase/luciferin reaction. Readout is performed after 30 min incubation at room temperature using the Envision. Kinase activity is calculated by subtracting the relative light units (RLU) obtained in the presence of a positive control inhibitor (10 μM staurosporine) from the RLU obtained in the presence of vehicle. The ability of a test compound to inhibit this activity (or percentage inhibition) is determined as:
RLU test compound=RLU determined for sample with test compound present
RLU control=RLU determined for sample with positive control inhibitor
RLU vehicle=RLU determined in the presence of vehicle
Dose dilution series were prepared for the compounds enabling the testing of dose-response effects in the TYK2 assay and the calculation of the IC50 for the compound. Each compound is routinely tested at concentration of 20 μM followed by a 1/5 serial dilution, 10 points in a final concentration of 1% DMSO. […] The data are expressed as the average IC50 from the assays.

[3] = system: IL-12 activation of STAT4 in NK-92 cells; test: IL-12 activation of STAT4 in NK-92 cells using AphaLISA SureFire technology; type: cell-based; conditions: Homo sapiens, NK92; IL-12 activation of STAT4 in NK-92 cells, AlphaLISA SureFire; average IC50; read-out: IL12 pSTAT4 IC50
In short: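 NK-92 cells, starved of rhIL-2 overnight, were stimulated with rhIL-12 for 30 min at 37 °C with test compounds, then lysed. Phospho-STAT4 (Tyr693) was read by AlphaLISA SureFire. Percent inhibition versus the vehicle-plus-trigger signal was fitted by sigmoidal nonlinear regression to give IC50, averaged over experiments.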

[4] = system: IL-12 activation of STAT4 in NK-92 cells; test: IL-12 activation of STAT4 in NK-92 cells using MSD as readout; type: cell-based; conditions: Homo sapiens, NK92; NK-92 cells, rhIL-12 25 ng/mL, MSD readout; read-out: IL12 pSTAT4 IC50
Method: IL-2 is added freshly to the medium with each medium refreshment step. Cells are cultured in a humidified incubator at 37° C. 5% CO2.
NK-92 cells are pre-incubated with test compounds or vehicle for 30 min at 37° C. 5% CO2. […] NK-92 cells are triggered with rhIL-12 for 45 min at 37° C. 5% CO2.
After 45 min of cytokine stimulation the cells are lysed by addition of 50 μL ice-cold lysis buffer (supplemented with the MSD kit). Plates are frozen at −80° C. for minimal 1 hour to lyse the cells completely. After thawing the levels of phospho-STAT4 are quantified using the Phospho-STAT4 (Tyr693) kit (MSD, Catalogue number K150PAD-2) according to the manufacturer's instructions. Electroluminescent signal is measured on the MSD reader.
The percentage inhibition is calculated as: […]
RLU (trigger/veh): Relative lumescent signal determined in presence of vehicle and trigger
RLU (test compound): Relative luminescent signal determined in presence of test compounds)
PIN values are plotted for compounds tested in dose-response and IC50 values are derived using LIMS Software applying non-linear regression (sigmoidal) curve fitting. The data are expressed as the average IC50 from different experiments.

[5] = molecular target: Recombinant human JAK3 catalytic domain (amino acids 781-1124) (Homo sapiens, UniProt P52333); test: JAK3 inhibition assay; type: biochemical
In short: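 Radiometric kinase reaction run 45 min at 30° C., stopped with phosphoric acid; activity as vehicle cpm minus 10 μM staurosporine cpm.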

[6] = molecular target: T2, Recombinant human JAK1 (catalytic domain, amino acids 866-1154) (Homo sapiens, UniProt P23458); test: JAK1 inhibition assay; type: biochemical; conditions: read-out: JAK1 potency IC50
T2 construct: catalytic domain, amino acids 866-1154

[7] = molecular target: T1, Recombinant human TYK2 catalytic domain (amino acids 871-1187); test: TYK2 radioactive assay polyGT substrate; type: biochemical; further: 0.1 µM ATP
In short: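 Reaction at 30° C. for 120 min, ended with 150 mM phosphoric acid, washed, counted; percent inhibition scaled between vehicle and 10 μM staurosporine cpm.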

[8] = molecular target: T3, Recombinant human JAK2 (catalytic domain, amino acids 808-1132) (Homo sapiens, UniProt O60674); test: JAK2 inhibition assay; type: biochemical; conditions: read-out: JAK2 potency IC50; further: 0.7 µM ATP
T3 construct: catalytic domain, amino acids 808-1132
T3 sequence (O60674 808-1132): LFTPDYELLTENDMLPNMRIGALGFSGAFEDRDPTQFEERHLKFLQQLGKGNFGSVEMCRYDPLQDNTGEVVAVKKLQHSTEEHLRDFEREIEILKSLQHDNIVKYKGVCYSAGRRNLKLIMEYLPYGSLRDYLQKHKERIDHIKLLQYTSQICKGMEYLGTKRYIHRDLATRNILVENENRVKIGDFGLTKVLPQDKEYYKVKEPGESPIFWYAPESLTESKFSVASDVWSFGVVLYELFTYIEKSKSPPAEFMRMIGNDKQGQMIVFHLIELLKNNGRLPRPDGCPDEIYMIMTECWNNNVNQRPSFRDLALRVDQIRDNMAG

Recombinant human JAK3 catalytic domain (amino acids 781-1124), sequence (P52333 781-1124): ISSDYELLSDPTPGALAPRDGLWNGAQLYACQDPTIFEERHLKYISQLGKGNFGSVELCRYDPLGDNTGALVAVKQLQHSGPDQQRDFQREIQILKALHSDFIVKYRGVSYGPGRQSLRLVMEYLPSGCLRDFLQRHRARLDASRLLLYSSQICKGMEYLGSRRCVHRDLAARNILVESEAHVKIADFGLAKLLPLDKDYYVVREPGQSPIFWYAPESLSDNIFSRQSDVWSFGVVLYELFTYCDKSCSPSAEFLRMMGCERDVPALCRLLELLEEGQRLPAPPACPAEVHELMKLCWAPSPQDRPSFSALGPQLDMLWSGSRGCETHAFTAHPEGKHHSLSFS
T2 sequence (P23458 866-1154): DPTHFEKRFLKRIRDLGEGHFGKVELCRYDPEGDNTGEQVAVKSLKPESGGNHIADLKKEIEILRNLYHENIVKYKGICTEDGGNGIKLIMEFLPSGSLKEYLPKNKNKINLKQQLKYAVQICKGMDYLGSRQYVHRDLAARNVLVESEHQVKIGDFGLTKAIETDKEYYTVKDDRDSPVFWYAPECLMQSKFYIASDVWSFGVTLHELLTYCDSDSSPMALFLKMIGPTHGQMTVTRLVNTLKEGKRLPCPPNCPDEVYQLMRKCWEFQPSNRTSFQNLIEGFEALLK

SMILES | IC50 [1] | IC50 [2] | IC50 [3] | IC50 [4] | IC50 [5] | IC50 [6] | IC50 [7] | IC50 [8]
Cc1cc(C#N)ncc1Oc1cc(Nc2ccc(N3CCOC(C(C)C)C3)nn2)c2ncn(C)c2n1 (stereo in doubt) [Compound 173, 4-methyl-5-[3-methyl-7-[[6-[(2R)-2-propan-2-ylmorpholin-4-yl]pyridazin-3-yl]amino]imidazo[4,5-b]pyridin-5-yl]oxypyridine-2-carbonitrile] | 0.114 µM | 0.0013 µM | 0.033 µM | – | – | – | – | –
Cc1cc(C#N)ncc1Oc1cc(Nc2ccc(N3CCOC(CO)C3)nn2)c2ncn(C)c2n1 (centres unmarked) [Compound 169, 5-[7-[[6-[2-(hydroxymethyl)morpholin-4-yl]pyridazin-3-yl]amino]-3-methylimidazo[4,5-b]pyridin-5-yl]oxy-4-methylpyridine-2-carbonitrile] | 0.147 µM | 0.00147 µM | 0.665 µM | – | – | – | – | –
Cc1cc(C#N)ncc1Oc1cc(Nc2ccc(C(F)(F)F)cn2)c2ncn(C)c2n1 [Compound 59, 4-methyl-5-[3-methyl-7-[[5-(trifluoromethyl)-2-pyridyl]amino]imidazo[4,5-b]pyridin-5-yl]oxy-pyridine-2-carbonitrile] | 0.407 µM | – | – | 4.72 µM | 3.78 µM | 0.461 µM | 0.0692 µM | 0.133 µM
Cc1cc(C#N)ncc1Oc1cc(Nc2ccc(C(=O)NCC(C)O)nn2)c2ncn(C)c2n1 (centres unmarked) [Compound 25, 6-[5-(6-Cyano-4-methyl-pyridin-3-yloxy)-3-methyl-3H-imidazo[4,5-b]pyridin-7-ylamino]-pyridazine-3-carboxylic acid (2-hydroxy-propyl)-amide] | 0.198 µM | – | – | 1.12 µM | 2.3 µM | 0.243 µM | 0.0192 µM | 0.0783 µM
CCNS(=O)(=O)c1ccc(Nc2cc(Oc3cnc(C#N)cc3C)nc3c2ncn3C)cc1 [Compound 53, 4-[[5-[(6-cyano-4-methyl-3-pyridyl)oxy]-3-methyl-imidazo[4,5-b]pyridin-7-yl]amino]-N-ethyl-benzenesulfonamide] | 0.119 µM | – | – | 0.409 µM | 0.495 µM | 0.068 µM | 0.00922 µM | 0.0727 µM
Cc1cc(C#N)ncc1Oc1cc(Nc2ccc(N3CCO[C@@H](CO)C3)nn2)c2ncn(C)c2n1 [Compound 163, 5-[7-[[6-[(2R)-2-(hydroxymethyl)morpholin-4-yl]pyridazin-3-yl]amino]-3-methylimidazo[4,5-b]pyridin-5-yl]oxy-4-methylpyridine-2-carbonitrile] | – | 0.00106 µM | – | – | – | – | – | –
C[C@H]1COCC[C@@H]1N(C)c1cc(Nc2cc(N)ncn2)c2ncn(C)c2n1 [Compound 17, N7-(6-Amino-pyrimidin-4-yl)-3,N5-dimethyl-N5-((3R,4S)-3-methyl-tetrahydro-pyran-4-yl)-3H-imidazo[4,5-b]pyridine-5,7-diamine] | – | – | – | 0.905 µM | 0.237 µM | 0.0646 µM | 0.0102 µM | 0.0146 µM
CC1COCCC1N(C)c1cc(Nc2cc(N)ncn2)c2ncn(C)c2n1 (centres unmarked) [Compound 19, N7-(6-Amino-pyrimidin-4-yl)-3,N5-dimethyl-N5-(3-methyl-tetrahydro-pyran-4-yl)-3H-imidazo[4,5-b]pyridine-5,7-diamine] | – | – | 0.072 µM | 0.806 µM | 0.231 µM | 0.0809 µM | 0.0107 µM | 0.0112 µM
Cc1cc(C#N)ncc1Oc1cc(Nc2ccc(N3CCCOCC3)nn2)c2ncn(C)c2n1 [Compound 167, 4-methyl-5-[3-methyl-7-[[6-(1,4-oxazepan-4-yl)pyridazin-3-yl]amino]imidazo[4,5-b]pyridin-5-yl]oxypyridine-2-carbonitrile] | 0.129 µM | 0.00255 µM | 0.088 µM | – | – | – | – | –
Cc1cc(C#N)ncc1Oc1cc(Nc2ccc(N3CCO[C@H](CO)C3)nn2)c2ncn(C)c2n1 [Compound 165, 5-[7-[[6-[(2S)-2-(hydroxymethyl)morpholin-4-yl]pyridazin-3-yl]amino]-3-methylimidazo[4,5-b]pyridin-5-yl]oxy-4-methylpyridine-2-carbonitrile] | – | 0.00109 µM | – | – | – | – | – | –
CCNC(=O)c1ccc(Nc2cc(Oc3cnc(C#N)cc3C)nc3c2ncn3C)nn1 [Compound 23, 6-[5-(6-Cyano-4-methyl-pyridin-3-yloxy)-3-methyl-3H-imidazo[4,5-b]pyridin-7-ylamino]-pyridazine-3-carboxylic acid ethylamide] | 0.16 µM | – | – | 0.248 µM | 2.93 µM | 0.234 µM | 0.0183 µM | 0.0667 µM
CN(c1cc(Nc2cc(N)ncn2)c2ncn(C)c2n1)C1CCOCC1(C)C (centres unmarked) [Compound 11, N7-(6-Amino-pyrimidin-4-yl)-N5-(3,3-dimethyl-tetrahydro-pyran-4-yl)-3,N5-dimethyl-3H-imidazo[4,5-b]pyridine-5,7-diamine] | – | – | – | 0.377 µM | 0.143 µM | 0.0272 µM | 0.00181 µM | 0.00475 µM
Cc1cc(C#N)ncc1Oc1cc(Nc2ccc(S(=O)(=O)N3CCOCC3)cc2)c2ncn(C)c2n1 [Compound 63] | 0.128 µM | – | – | 1.14 µM | 0.584 µM | 0.102 µM | 0.00758 µM | 0.07 µM
CCNC(=O)c1ccc(Nc2cc(NC(C3CC3)C(F)(F)F)nc3c2ncn3C)cn1 (centres unmarked) [Compound 91, 5-[[5-[(1-cyclopropyl-2,2,2-trifluoro-ethyl)amino]-3-methyl-imidazo[4,5-b]pyridin-7-yl]amino]-N-ethyl-pyridine-2-carboxamide] | – | – | – | 3.15 µM | 0.208 µM | 0.157 µM | 0.0241 µM | 0.042 µM
Cc1cc(C#N)ncc1Oc1cc(Nc2ccc(S(C)(=O)=O)cn2)c2ncn(C)c2n1 [Compound 58, 4-methyl-5-[3-methyl-7-[(5-methylsulfonyl-2-pyridyl)amino]imidazo[4,5-b]pyridin-5-yl]oxy-pyridine-2-carbonitrile] | 0.088 µM | – | – | 0.595 µM | 1.1 µM | 0.0978 µM | 0.00742 µM | 0.0355 µM
C[C@H](N(C)c1cc(Nc2cc(N)ncn2)c2ncn(C)c2n1)C(C)(C)C [Compound 12, N7-(6-aminopyrimidin-4-yl)-N5,3-dimethyl-N5-[(1S)-1,2,2-trimethylpropyl]imidazo[4,5-b]pyridine-5,7-diamine] | 0.025 µM | – | – | 0.54 µM | 0.0367 µM | 0.0269 µM | 0.00142 µM | 0.00304 µM
